The record followed here is PubChem BioAssay AID651837 (Sanford-Burnham Center for Chemical Genomics, 2012).

The source made the active and inactive calls.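 How the source made its calls: active means compounds whose fitted half-inhibition dose is 9.7 micromolar or lower; inactive means the rest.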

The test system of this assay is Sufu-KO-LIGHT mouse cells, Gli-luciferase reporter luminescence. As to the kind of experiment: antagonism of Gli-driven luciferase signal in Sufu-null cells – Sufu-KO-LIGHT mouse cells, luminescence, set 2, SAR follow-up (AID 651837).
As a reminder, the IC50 is the point on the concentration scale where inhibition reaches its midpoint. As for `CC1CCN(c2cc(NC(=O)c3ccccc3)ncn2)CC1`, the IC50 is 0.024 µM.

In the case of `CC(C)(C)Nc1cc(NC(=O)c2ccccc2)ncn1`, the IC50 was > 9.7 µM (inactive).

For the compound `COc1ccccc1C(=O)Nc1cc(N2CCCCC2)ncn1`, the IC50 is > 9.7 µM (inactive).

Consider `CC(C)(C)OC(=O)N1CCN(c2cc(NC(=O)c3ccccc3)ncn2)CC1`, for which the IC50 was > 9.7 µM (inactive).

As to `CC1CCCCN1c1cc(NC(=O)c2ccccc2)ncn1` (stereo not drawn), the IC50 is > 9.7 µM (inactive).

For `CCCCNc1cc(NC(=O)c2ccccc2)ncn1`, the IC50 was > 9.7 µM (inactive).

For `CCOc1ccc(-c2nc(CSCC(=O)NC3CC3)c(C)o2)cc1`, the IC50 was 0.027 µM.

Consider `O=C(Nc1cc(N2CCSCC2)ncn1)c1ccccc1`, for which the IC50 was > 9.7 µM (inactive).

For the compound `O=C(Nc1cc(NCC2CCCO2)ncn1)c1ccccc1` (stereo not drawn), the IC50 is > 9.7 µM (inactive).

As for `COc1cccc(C(=O)Nc2cc(N3CCCCC3)ncn2)c1`, the IC50 is > 9.7 µM (inactive).

`O=C(Nc1cc(N2CCCCC2)ncn1)c1ccc(C(F)(F)F)cc1`: the IC50 was > 9.7 µM (inactive).

`CCOc1ccc(S(=O)(=O)NCc2ccncc2)cc1NC(=O)c1ccccc1`: the 50% inhibitory concentration (IC50) was 3.4 µM.

As for `O=C(Nc1cc(N2CCCCC2)ncn1)c1ccccc1Cl`, the IC50 was > 9.7 µM (inactive).

For the compound `CCC(C)Nc1cc(NC(=O)c2ccccc2)ncn1` (stereo not drawn), the IC50 is > 9.7 µM (inactive).

`CC(C)CNc1cc(NC(=O)c2ccccc2)ncn1`: the IC50 was > 9.7 µM (inactive).

For the compound `O=C(Nc1cc(N2CCCCC2)ncn1)c1ccccc1C(F)(F)F`, the IC50 is > 9.7 µM (inactive).

As to `N#Cc1cccc(C(=O)Nc2cc(N3CCCCC3)ncn2)c1`, the IC50 is > 9.7 µM (inactive).

With `O=C(Nc1cc(N2CCCCC2)ncn1)c1ccco1`, the IC50 is > 9.7 µM (inactive).

Regarding `N#Cc1ccc(C(=O)Nc2cc(N3CCCCC3)ncn2)cc1`, the IC50 is > 9.7 µM (inactive).

As for `O=C(Nc1cc(N2CCCCC2)ncn1)c1ccc(Cl)cc1`, the IC50 is > 9.7 µM (inactive).

For `O=C(Nc1cc(N2CCOCC2)ncn1)c1ccccc1`, the IC50 was > 9.7 µM (inactive).

In the case of `CCCCN(C)c1cc(NC(=O)c2ccccc2)ncn1`, the IC50 was > 9.7 µM (inactive).

Consider `O=C(Nc1cc(N2CCNCC2)ncn1)c1ccccc1`, for which the IC50 was > 9.7 µM (inactive).

Consider `CN1CCN(c2cc(NC(=O)c3ccccc3)ncn2)CC1`, for which the IC50 is > 9.7 µM (inactive).

Consider `O=C(Nc1cc(N2CCCCCC2)ncn1)c1ccccc1`, for which the IC50 is 0.035 µM.

On to `Cc1ccc(C(=O)Nc2cc(N3CCCCC3)ncn2)cc1`, for which the IC50 was > 9.7 µM (inactive).

Take `CC(C)Nc1cc(NC(=O)c2ccccc2)ncn1`: the IC50 is > 9.7 µM (inactive).

On to `O=C(Nc1cc(N2CCCCC2)ncn1)c1ccccc1`, for which the IC50 was 0.023 µM.
